Assay results: PubChem BioAssay (NCI)
“And” between values parts separate entries of the source, which are not always exact repeats. Identical values can stand only once.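 These data come from cells grown in 96-well plates and exposed to compound for 48 hours at five concentrations. Here, GI50 denotes the concentration required for 50% inhibition of growth. The concentration for full growth arrest is given as TGI.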

How the values were obtained:
Test in all cases: growth of human tumour cells (NCI), 48 h
[1] = test system: A549 NSCLC
[2] = test system: HCT-116 colon
[3] = test system: HOP-62 NSCLC
[4] = test system: KM20L2 colon
[5] = test system: M19-MEL melanoma
[6] = test system: OVCAR-3 ovarian
[7] = test system: SK-MEL-5 melanoma
[8] = test system: SN12C renal
[9] = test system: SR leukemia
[10] = test system: DU-145 prostate

CCc1cccc(C)c1N1C(=O)C(=O)C(c2nc3ccccc3o2)C(=O)C1=O
TGI [1]: > 100 µM
TGI [2]: > 100 µM
TGI [3]: > 100 µM
TGI [4]: > 100 µM
TGI [5]: > 100 µM
TGI [6]: > 100 µM
TGI [7]: > 100 µM
TGI [8]: > 100 µM
TGI [9]: > 100 µM

Cc1cccc2c1c1ccc3c(c1n2C)C(=O)C=CC3=O
TGI [1]: 37.7 µM
TGI [2]: 15.1 µM
TGI [3]: 37.8 µM
TGI [4]: 36.9 µM
TGI [5]: 14.9 µM
TGI [6]: 5.08 µM
TGI [7]: 29.6 µM
TGI [8]: 12.8 µM
TGI [9]: 4.45 µM

CCOC(=O)CCC1(C(=O)OCC)CCCC1=O (centres undefined)
TGI [1]: > 100 µM
TGI [2]: > 100 µM
TGI [3]: > 100 µM
TGI [4]: > 100 µM
TGI [5]: > 100 µM
TGI [6]: > 100 µM
TGI [7]: > 100 µM
TGI [8]: > 100 µM
TGI [9]: 60.4 µM

Cc1cc(C)nc(/C(=N\NC(N)=O)C(=O)Nc2nc3ccc(C)cc3s2)c1
TGI [1]: > 100 µM
TGI [2]: > 100 µM
TGI [3]: > 100 µM
TGI [4]: > 100 µM
TGI [5]: > 100 µM
TGI [6]: > 100 µM
TGI [7]: > 100 µM
TGI [8]: > 100 µM
TGI [9]: 40.7 µM

CC1=C2C(=CC(C)(C)[C@@H]2O)C(=O)[C@](C)(O)C12CC2
TGI [1]: 0.191 µM and 1.12 µM
GI50 [10]: 0.00545 µM
TGI [10]: 0.0262 µM
TGI [2]: 0.186 µM and 0.193 µM
GI50 [3]: 0.0233 µM
TGI [3]: 0.1 µM and 0.0872 µM
TGI [4]: 0.0744 µM
TGI [5]: 0.163 µM
GI50 [6]: 0.00835 µM
TGI [6]: 0.0327 µM and 0.0422 µM
GI50 [7]: 0.0159 µM
TGI [7]: 0.0358 µM and 0.0269 µM
GI50 [8]: 0.0387 µM
TGI [8]: 0.216 µM and 0.184 µM
GI50 [9]: 0.00351 µM
TGI [9]: 0.0744 µM and 0.268 µM

C#CCNC(=O)NCCCCC(NC(=O)OCc1ccccc1)C(=O)OCc1ccccc1 (centres undefined)
TGI [1]: > 100 µM
TGI [2]: > 100 µM
TGI [3]: > 43 µM
TGI [4]: > 100 µM
TGI [5]: > 100 µM
TGI [6]: > 100 µM
TGI [7]: > 100 µM
TGI [8]: > 100 µM
TGI [9]: > 100 µM

O=c1cccccc1NCCCCCCCNc1cccccc1=O
TGI [1]: > 100 µM
TGI [2]: > 100 µM
TGI [3]: > 100 µM
TGI [4]: > 100 µM
TGI [5]: 84.8 µM
TGI [6]: > 100 µM
TGI [8]: > 100 µM
TGI [9]: 89.8 µM

CN(C)c1nc(=NCc2ccco2)ss1
TGI [1]: > 76.7 µM
TGI [10]: > 100 µM
TGI [2]: 35 µM
TGI [3]: 62.8 µM
TGI [4]: > 100 µM
TGI [5]: > 43.6 µM
TGI [6]: 63 µM
TGI [7]: > 100 µM
TGI [8]: 57.2 µM
TGI [9]: 15.3 µM

O=C(C#Cc1ccccc1)N1c2ccccc2CC1c1c[nH]c2ccccc12 (centres undefined)
TGI [1]: 49.1 µM
TGI [2]: 26.5 µM
TGI [3]: 26.9 µM
TGI [4]: 67.5 µM
TGI [5]: 43.1 µM
TGI [6]: 32.1 µM
TGI [7]: 30 µM
TGI [8]: 26.9 µM
TGI [9]: 45.3 µM

Cl/C(N=Nc1ccccc1)=N/Nc1ccccc1
TGI [1]: > 100 µM
TGI [2]: > 100 µM
TGI [3]: > 100 µM
TGI [4]: > 100 µM
TGI [5]: > 100 µM
TGI [8]: > 100 µM
TGI [9]: > 100 µM

NNc1cnn(-c2ccccc2)c(=O)c1Cl
TGI [1]: > 100 µM
TGI [2]: > 100 µM
TGI [3]: > 100 µM
TGI [4]: > 100 µM
TGI [5]: > 100 µM
TGI [6]: > 100 µM
TGI [7]: > 100 µM
TGI [8]: > 100 µM
TGI [9]: > 100 µM

CNc1ccc2ncccc2c1[N+](=O)[O-]
TGI [1]: > 100 µM
TGI [2]: > 100 µM
TGI [3]: > 100 µM
TGI [4]: > 100 µM
TGI [5]: > 100 µM
TGI [6]: > 100 µM
TGI [7]: > 100 µM
TGI [8]: > 100 µM
TGI [9]: > 100 µM

CCOC(=O)CN(Cn1cncn1)Cn1cncn1
TGI [1]: > 100 µM
TGI [2]: > 100 µM
TGI [3]: > 100 µM
TGI [4]: 51.7 µM
TGI [5]: > 100 µM
TGI [6]: 51.8 µM
TGI [7]: 53.7 µM
TGI [8]: 85.3 µM

COc1ccc(-c2cc(C(=O)Nc3cc(C(F)(F)F)cc(C(F)(F)F)c3)c3ccccc3n2)cc1
TGI [1]: 17.5 µM
TGI [2]: 18.6 µM
TGI [3]: 30.3 µM
TGI [4]: 31.4 µM
TGI [5]: 63 µM
TGI [6]: 15.5 µM
TGI [7]: 34.6 µM
TGI [8]: 25.1 µM
TGI [9]: 38.5 µM

COC(=O)C1=C(CS(=O)c2ccc([N+](=O)[O-])cc2[N+](=O)[O-])C2C=CC1C2 (centres undefined)
TGI [1]: > 100 µM
TGI [2]: 45.1 µM
TGI [3]: > 100 µM
TGI [4]: 57.8 µM
TGI [5]: 64.2 µM
TGI [6]: 66.8 µM
TGI [7]: > 100 µM
TGI [8]: 50.2 µM

N/C(=N\NS(=O)(=O)c1ccccc1)Oc1ccc(Br)cc1Br
TGI [1]: > 100 µM
TGI [2]: > 100 µM
TGI [3]: > 100 µM
TGI [4]: > 100 µM
TGI [5]: > 100 µM
TGI [6]: > 100 µM
TGI [7]: > 100 µM
TGI [8]: > 100 µM
TGI [9]: > 100 µM

CC1(c2cc3c(cc2Br)OCO3)SCCCS1
TGI [1]: > 100 µM
TGI [2]: > 100 µM
TGI [3]: > 100 µM
TGI [4]: > 100 µM
TGI [5]: > 100 µM
TGI [6]: > 100 µM
TGI [7]: 51 µM
TGI [8]: > 100 µM

CC(C)(O)/C=C/C(=O)[C@](C)(O)[C@H]1[C@H](O)C[C@@]2(C)[C@@H]3CC=C4[C@@H](C[C@H](O)C(=O)C4(C)C)[C@]3(C)C(=O)C[C@]12C
GI50 [1]: 0.224 µM
TGI [1]: 16.5 µM
GI50 [2]: 0.164 µM
GI50 [3]: 0.337 µM
TGI [3]: 0.699 µM and 0.547 µM
GI50 [4]: 0.0872 µM
GI50 [5]: 0.0781 µM
TGI [5]: 20.7 µM
GI50 [6]: 0.125 µM
TGI [6]: 1.02 µM
GI50 [7]: 0.0565 µM and 0.11 µM
TGI [7]: 0.682 µM and 2.44 µM
GI50 [8]: 0.355 µM
TGI [8]: 28 µM
GI50 [9]: 0.39 µM
TGI [9]: 5.05 µM

Clc1cccc(N2CCN(CCCN3CCc4c([nH]c5ccccc45)C3c3cccnc3)CC2)c1 (centres undefined)
GI50 [1]: 16.1 µM
TGI [1]: 36.9 µM
GI50 [2]: 6.97 µM
TGI [2]: 24.9 µM
TGI [3]: 32.7 µM
TGI [4]: 18.8 µM
TGI [5]: 23.4 µM
GI50 [6]: 9.24 µM
TGI [6]: 22.7 µM
GI50 [7]: 6.79 µM
TGI [7]: 24.9 µM
TGI [8]: 30.3 µM
GI50 [9]: 4.58 µM
TGI [9]: 7.34 µM and 24.6 µM

Cc1c2c(cc3c1C(=O)C(=O)C1=C3OC[C@@H]1C)C(C)(C)CCC2
TGI [1]: 26.8 µM
TGI [2]: 26.7 µM
TGI [3]: 36.4 µM
TGI [4]: 44.5 µM
TGI [5]: 6.68 µM
TGI [6]: 34.9 µM
TGI [7]: 26.1 µM
TGI [8]: 34.6 µM
TGI [9]: 50.2 µM

CCOc1ccc(/C(C=O)=C(\Cl)c2ccc(OC)cc2)cc1
TGI [1]: > 100 µM
TGI [10]: > 100 µM
TGI [2]: > 100 µM
TGI [3]: > 100 µM
TGI [4]: > 100 µM
TGI [5]: > 100 µM
TGI [6]: > 100 µM
TGI [7]: > 100 µM
TGI [8]: > 100 µM
TGI [9]: > 100 µM
